The values below come from patent US8883173B2 (priority 2007, dated 2014).

“Also recorded” adds a separate entry of the source. Square brackets hold non-standard residues; d marks the D form. Ends that are not written are not given here. NMeV = CN[C@H](C(=O)O)C(C)C

Assay [1] concerns sera from Map infected animals (anti-Map antibodies). The class given is binding, bovines and goats.
The subject of assay [2] is sera from M. avium subsp. avium-experimentally infected mouse. Description: ELISA with sera from Mav experimentally infected mouse. The class given is binding. The following applies: FIG. 4B.
The test system of assay [3] is sera from Mav- or Mai-infected human patients. The class given is binding.
Assay [4] relates to sera from M. bovis infected bovine. Format: binding. Particulars: read at 414 nm.
Assay [5] relates to IgA, IgM, IgG1 or IgG2 antibodies in sera of Map infected animals. The class given is binding, bovines.

For the compound “LipidC20-DPhe-NMeVal-Ile-Phe-Ala [compound 9]”, the “specific reaction with Map specific anti serum” value (from here on “specific reaction”) in assay [1] is given as “react specifically”.

Take “AcNH-DPhe-Val-Ile-Phe-Ala-OMe (Ac-[dF]VIFA-OMe; SMILES CC[C@H](C)[C@H](NC(=O)[C@@H](NC(=O)[C@@H](Cc1ccccc1)NC(C)=O)C(C)C)C(=O)N[C@@H](Cc1ccccc1)C(=O)N[C@@H](C)C(=O)OC) [compound 8]”: in assay [1], the “specific reaction” value is reported as “react specifically”.

As to “AcNH-DPhe-NMeVal-Ile-Phe-Ala (Ac-[dF][NMeV]IFA) [compound 10]”, the “specific reaction” value in assay [1] is “react specifically”.

Take “DPhe-NMeVal-Ile-Phe-Ala-OMe ([dF][NMeV]IFA-OMe) [compound 4]”: in assay [1], the “antigenic response (ranking among analogues)” value was “best antigenic response”; the “recognition by sera of Map-infected animals, compared with L5P” value (from here on “recognition by sera … compared with L5P”) was “recognized at least as efficiently”; the “sensitivity for detection of Map-specific antibodies compared to L5P (1)” value was “higher sensitivity”; the “specific reaction” value is reported as “react specifically”.

On to “LipidC20-DPhe-NMeVal-Ile-Phe-Ala-OMe [L5P]”, for which, in assay [2], the reactivity with sera entry was “none was reacting”. Further, the “O.D. in ELISA” value in assay [3] is on record as “below 0.2”. In assay [4], the “O.D. in ELISA” value was “below 0.2”. In assay [1], the “OD in ELISA” value is listed as “above 1,5” and the “specificity compared with PPD” value is reported as “by far more specific than the PPD”. Moreover, in assay [5], the “anti-L5P IgA in sera” value is “no IgA was detected”, the “anti-L5P IgG1 in sera” value was “present”, the “anti-L5P IgG2 in sera” value is reported as “present” and the “anti-L5P IgM in sera” value is “present”.

In the case of `CCCCCCCCCCCCCCCCCCCC(=O)O` [lipid moiety, eicosanoic acid, reference compound], the “recognition by sera … compared with L5P” value in assay [1] was “poorly recognized”.

With “AcNH-DPhe-NMeVal-Ile-Phe-Ala-OMe (Ac-[dF][NMeV]IFA-OMe; SMILES CC[C@H](C)[C@H](NC(=O)[C@H](C(C)C)N(C)C(=O)[C@@H](Cc1ccccc1)NC(C)=O)C(=O)N[C@@H](Cc1ccccc1)C(=O)N[C@@H](C)C(=O)OC) [Ac5P]”, the “recognition by sera … compared with L5P” value in assay [1] is “recognized as efficiently as the L5P; also recorded: In some cases, the pentapeptide was even better recognized than the whole L5P”.
